Like-named read-outs stand apart in the source and are kept apart here.
Experiments:
[1] = target: T1, mouse Smoothened (Mus musculus, UniProt P56726); assay: Smo-binding assay (BODIPY-cyclopamine competition, HEK 293T cells); conditions: 5 nM BODIPY-cyclopamine, Smo-overexpressing HEK 293T cells
T1 construct: expressed in transfected cells; host or cells: HEK 293T
Method: Smo-binding assay. HEK 293T cells were cultured in DMEM containing 10% fetal bovine serum, 100 U/mL penicillin, and 100 μg/mL streptomycin to 50% confluency in 96-well plates and then transfected with a CMV promoter-driven mouse Smoothened-Myc3 expression construct (100 ng cDNA/well) with Fugene 6 (Roche) according to the manufacturer's protocols. After 12 h the cells were incubated with DMEM containing 0.5% fetal bovine serum, 10 μM Hoechst 33342, 5 nM BODIPY-labeled cyclopamine (Chen J. K., Taipale J, Cooper M. K., Beachy P. A., “Inhibition of Hedgehog signaling by direct binding of cyclopamine to Smoothened” Genes Dev., 2002; 16:2743-8; incorporated herein by reference), and various concentrations of compound 75 for 1 h. The cells were washed two times with PBS buffer and then imaged in DMEM containing 0.5% fetal bovine serum using an ImageXpress 5000A microscopy system (Molecular Devices).

[2] = Stability remarks; type: physicochemical; conditions: in our studies
[3] = test system: Shh-LIGHT2 cells; assay: Compound activities in Shh-LIGHT2 cells (Gli-dependent luciferase reporter); type: cell-based; conditions: Shh Light2, Shh-N-conditioned medium, luciferase reporter activity
Method: Shh-LIGHT2 cells (ATCC CRL-2795), a NIH-3T3 cell line stably incorporating Gli-dependent firefly luciferase and thyrmidine kinase promoter-driven Renilla luciferase reporters (Taipale J, Chen J K, Cooper M K, Wang B. Mann R K, Milenkovic L. et al. “Effects of oncogenic mutations in Smoothened and Patched can be reversed by cyclopamine” Nature 2000; 406:1005-9; incorporated herein by reference), were cultured to confluency in 96-well plates using DMEM medium containing 10% calf serum, 100 U/mL penicillin, and 100 μg/mL streptomycin. The cells were then treated with various concentrations of the compounds in DMEM containing 0.5% calf serum and a 1:20 dilution of Shh-N-conditioned medium (Chen J. K., Taipale J. Young K. E., Maiti T Beachy P. A., “Small molecule modulation of Smoothened activity” Proc. Natl. Acad. Sci. U.S.A., 2002; 99:14071-6; incorporated herein by reference). The cells were cultured for an additional 30 h under standard conditions. Firefly and Renilla luciferase activities were measured on a Veritas luminometer (Turner Biosystems) using a dual luciferase kit (Promega) according to the manufacturers' protocols.

[4] = test system: Hh signal pathway target genes Ptch1 and Gli1 mRNA; assay: Quantitative real-time PCR of Hh target genes in zebrafish embryos; type: in vivo; conditions: dose dependent; for Ptch1 mRNA level: FIG. 1A; for Gli1 mRNA level: FIG. 1B
Method: Quantitative Real-time PCR. The larvae were exposed to different concentrations of small molecules from 2 hpf. Total RNA was extracted from the embryos at 36 hpf using the Trizol kit (Ambion, Austin, Tex.) according to the manufacturer's instructions. Three groups per treatment, each composed of 20 embryos, were assayed using SYBRGreen qPCR kit by real-time PCR (ABI Prism 7700 Sequence Detector System).

[5] = test system: mouse Smo; assay: FRET analysis of Smo conformation in NIH-3T3 cells; type: cell-based; conditions: for Shh-induced decrease in FRET from mSmo-CFPL2YFPC (FRETL2C) / Shh-induced increase in FRET between mSmo-CFPC and mSmo-YFPC (FRETC): 50 nM, with Shh; for basal FRET of mSmo-CFPN/mSmoYFPN (N-termini): SANT74 or SANT75 50 nM, SAG 100 nM, with or without Shh
Method: FRET analysis using confocal microscopy. Effect of SAG, compound 21a (SANT74), and compound 21b (SANT75) on mSmo conformational change was tested by FRET in NIH-3T3 cells that were co-transfected with mouse Smo CFP and Smo YFP reporter constructs. The construction of mSmo-CFP^C/YFP^C, mSmo-CFP^N/YFP^N, and mSmo-CFP^L2YFP^C was performed as described in Zhao Y. Tong C, Jiang J., “Hedgehog regulates smoothened activity by inducing a conformational switch” Nature, 2007; 450:252-8; incorporated herein by reference. NIH-3T3 cells were cultured in DMEM containing 10% bovine calf serum and antibiotics PS at 5% CO2 in a humidified incubator. Transfection was carried out using FuGENE6 (Roche). For FRET analysis of cultured cells, CFP- and YFP-tagged constructs were transfected into NIH-3T3 cells. Transfected cells were treated in the presence of compounds with or without Shh-conditioned medium. Cells were washed with PBS, fixed with 4% formaldehyde for 20 min, and mounted on slides in 80% glycerol. Fluorescence signals were acquired with the 100× objective of a Zeiss LSM510 confocal microscope. CFP was excited by 458 nm light and the emission was collected through BP 480-520 nm filter. YFP was excited by 514 nm light and the emission was collected through BP 535-590 nm filter. CFP signal was obtained once before and once after photobleaching YFP using the full power of the 514 nm laser line for 1-2 min at the top half of each cell, leaving the bottom half unbleached that serves as an internal control. The intensity of CFP was analyzed using the Metamorph software (Universal Imaging Corn). Energy transfer efficiency was calculated using the formula: FRET %=(CFPAP−CFPBP/CFPAP)×100. Each data set was based on 10-15 individual cells. In each cell, four to five regions of interest in the photobleached area were selected for analysis.

[6] = test system: Gli:GFP expression (Hh signaling); assay: Gli:GFP transgenic zebrafish embryo assay; type: in vivo; conditions: for concentration at which inhibition of Hh signaling starts to show: zebrafish embryo assays; for concentration that blocks/abolishes Gli:GFP expression: zebrafish embryos
Description: Generation of Gli:GFP transgenic zebrafish. […] The PCR product digested with Nhe1 and Mlu1 was ligated to GFP and used to generate transgenic zebrafish by microinjection.
Image acquisition and analysis.

[7] = test system: zebrafish embryos; assay: Zebrafish embryo phenotype analysis (insulin:GFP beta cells, Flk:GFP intersegmental vessels, somites); type: in vivo; conditions: for off-target toxicity: whole zebrafish embryo assays
Method: If SANT74 and SANT75 are specific inhibitors of Hh treating, zebrafish embryos should only produce these well-characterized phenotypes. […] Using these criteria, the specificity of SANT74 and 75 in zebrafish was evaluated.
As a utility of this new inhibitor, timing requirement of Hh for normal somite formation and sprouting of ISV was tested by adding and washing away SANT74 at various developmental stages followed by phenotypic analysis.

T1 sequence (P56726 33-793): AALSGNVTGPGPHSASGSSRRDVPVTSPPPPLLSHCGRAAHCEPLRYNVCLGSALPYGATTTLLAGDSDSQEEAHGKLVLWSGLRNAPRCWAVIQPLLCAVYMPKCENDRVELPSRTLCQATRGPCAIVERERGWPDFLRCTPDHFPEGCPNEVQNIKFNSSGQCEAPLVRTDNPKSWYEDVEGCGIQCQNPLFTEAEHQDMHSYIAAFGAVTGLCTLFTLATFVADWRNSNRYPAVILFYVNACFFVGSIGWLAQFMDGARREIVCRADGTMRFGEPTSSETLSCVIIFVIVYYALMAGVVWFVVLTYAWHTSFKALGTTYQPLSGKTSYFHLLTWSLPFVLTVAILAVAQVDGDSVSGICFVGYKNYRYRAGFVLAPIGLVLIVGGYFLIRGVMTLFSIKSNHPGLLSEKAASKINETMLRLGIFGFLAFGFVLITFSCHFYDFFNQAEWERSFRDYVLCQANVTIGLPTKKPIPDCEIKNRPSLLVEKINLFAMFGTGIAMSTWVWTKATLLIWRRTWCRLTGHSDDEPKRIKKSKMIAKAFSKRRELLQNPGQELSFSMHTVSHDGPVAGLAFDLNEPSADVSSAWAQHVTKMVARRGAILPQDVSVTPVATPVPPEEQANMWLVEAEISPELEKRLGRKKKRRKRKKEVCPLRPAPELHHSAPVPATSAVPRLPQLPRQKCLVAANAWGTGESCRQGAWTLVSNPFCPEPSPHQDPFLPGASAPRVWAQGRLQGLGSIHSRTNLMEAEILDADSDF

Structure (SMILES): CCCN[C@H]1CC[C@H](N(Cc2cccc(-c3ccncc3)c2)C(=O)c2sc3ccccc3c2Cl)CC1 [SANT75, 3-chloro-N-(trans-4-(propylamino)cyclohexyl)-N-(3-(pyridin-4-yl)benzyl)benzo[b]thiophene-2-carboxamide]
- BODIPY-cyclopamine/Smo binding [1]: effectively abrogate
- stability [2]: relatively stable
- IC50 ([3]; read-out: IC50): 20 nM
- Ptch1 mRNA level [4]: reduced
- Gli1 mRNA level [4]: reduced
- Shh-induced decrease in FRET from mSmo-CFPL2YFPC (FRETL2C) [5]: blocked
- Shh-induced increase in FRET between mSmo-CFPC and mSmo-YFPC (FRETC) [5]: blocked
- basal FRET of mSmo-CFPN/mSmoYFPN (N-termini) [5]: not affected
- concentration at which inhibition of Hh signaling starts to show [6]: 5 µM
- concentration that blocks/abolishes Gli:GFP expression [6]: 20 µM
- off-target toxicity [7]: no obvious off-target toxicity

Structure (SMILES): CNC1CCC(N(Cc2cccc(-c3ccncc3)c2)C(=O)c2sc3ccccc3c2Cl)CC1 (stereo not drawn) [SAG, reference compound]
- FRETC ([5]; 100 nM, independent of Shh): increase
- FRETL2C ([5]; 100 nM, independent of Shh): decrease
- basal FRET of mSmo-CFPN/mSmoYFPN (N-termini) [5]: not affected
- effect on Gli:GFP expression ([6]; same condition as SANT19, approximately 80 μM): no effect

Structure (SMILES): C=CCN[C@H]1CC[C@H](N(Cc2cccc(-c3ccncc3)c2)C(=O)c2sc3ccccc3c2Cl)CC1 [SANT74, N-(trans-4-(allylamino)cyclohexyl)-3-chloro-N-(3-(pyridin-4-yl)benzyl)benzo[b]thiophene-2-carboxamide]
- stability [2]: relatively stable
- Ptch1 mRNA level [4]: reduced
- Gli1 mRNA level [4]: reduced
- Shh-induced decrease in FRET from mSmo-CFPL2YFPC (FRETL2C) [5]: blocked
- Shh-induced increase in FRET between mSmo-CFPC and mSmo-YFPC (FRETC) [5]: blocked
- basal FRET of mSmo-CFPN/mSmoYFPN (N-termini) [5]: not affected
- concentration at which inhibition of Hh signaling starts to show [6]: 5 µM
- concentration that blocks/abolishes Gli:GFP expression [6]: 20 µM
- intersegmental blood vessels (ISV) ([7]; 20 μM, Flk:GFP transgenic zebrafish): significantly reduced
- insulin:GFP cells ([7]; 20 μM, insulin:GFP transgenic zebrafish): significantly reduced
- effect on sprouting of ISV ([7]; added after 24 hpf): no longer had any effect
- somite phenotype ([7]; added for 4 hours before 21 hpf): induce U shape somite formation
- sprouting of ISV ([7]; added upon fertilization, washed away before 17 hpf): could occur normally
- concentration at which embryos no longer developed any extended ISVs ([7]; dose dependent inhibition of angiogenesis): ≥ 20 µM
- circulation by microangiographic analysis ([7]; embryos with defective ISVs): lacked circulation
- off-target toxicity [7]: no obvious off-target toxicity

Structure (SMILES): CC1=C2C[C@H]3[C@@H](CC=C4C[C@@H](O)CC[C@@]43C)[C@@H]2CC[C@]12O[C@@H]1C[C@H](C)CN[C@H]1[C@H]2C [cyclopamine, reference compound]
- IC50 [3]: 300 nM
- Gli:GFP expression upon treatment ([6]; transgenic embryos, concentration not given): abolished
